This note sets out measurements from patent US10647747B2, “Cyclosporin derivatives and uses thereof” (S&T Global Inc., priority 2010, dated 2020).

This series in a line: Stability testing: epimerization of cyclosporin derivatives in methanol, monitored by HPLC. It is filed as physicochemical. To be noted: for Epimerization % after 168 hours: Table 11, MeOH at 50° C.-58° C.
Setting [1] is: Table 10, MeOH at 50° C., 29 hours.
The mark [2] stands for this setting: Table 10, MeOH at 50° C., 77 hours.
[3] abbreviates: Table 10, MeOH at 50° C., 125 hours.

*1 amine or outer side, *2 acyl side, *3 side chain or, on linkers, in order; H or OH if unused. Where a SMILES comes first, the peptide text is derived from it. [ ]: non-standard residue; d: D form. ξ: configuration not given here. MeBmt = C/C=C/C[C@@H](C)[C@@H](O)[C@H](NC)C(=O)O; X1 = CN([C@H](SCCCN1CCOCC1)C(=O)[*:2])[*:1]; X2 = CCN(CC)CCCS[C@H](C(=O)[*:2])N(C)[*:1]; X6 = CCN(CC)CCS[C@H](C(=O)[*:2])N(C)[*:1]; NMeIle(3ξ) = CCC(C)[C@H](NC)C(=O)O; NMeL = CN[C@@H](CC(C)C)C(=O)O; NMeV = CN[C@H](C(=O)O)C(C)C; Abu = CC[C@H](N)C(=O)O

For the compound `C/C=C/C[C@@H](C)[C@@H](O)[C@H]1C(=O)N[C@@H](CC)C(=O)N(C)[C@H](SCCCN(CC)CC)C(=O)N(C)[C@@H](C(C)C)C(=O)N[C@@H](C(C)C)C(=O)N(C)[C@@H](CC(C)C)C(=O)N[C@@H](C)C(=O)N[C@H](C)C(=O)N(C)[C@@H](CC(C)C)C(=O)N(C)[C@@H](CC(C)C)C(=O)N(C)[C@@H](C(C)C)C(=O)N1C` (cyclo(A[dA][NMeL][NMeL][NMeV][MeBmt][Abu][X2][NMeV]V[NMeL])), the Epimerization % was 0% under setting [1], 0% under setting [2] and 0% under setting [3].

For `C/C=C/C[C@@H](C)[C@@H](O)[C@H]1C(=O)N[C@@H](CC)C(=O)N(C)[C@H](SCCCN2CCOCC2)C(=O)N(C)[C@@H](C(C)C)C(=O)N[C@@H](C(C)C)C(=O)N(C)[C@@H](CC(C)C)C(=O)N[C@@H](C)C(=O)N[C@H](C)C(=O)N(C)[C@@H](CC(C)C)C(=O)N(C)[C@@H](CC(C)C)C(=O)N(C)[C@@H](C(C)C)C(=O)N1C` (cyclo(A[dA][NMeL][NMeL][NMeV][MeBmt][Abu][X1][NMeV]V[NMeL])), the Epimerization % stood at 0% under setting [1], 0% under setting [2] and 0% under setting [3].

Consider `C/C=C/C[C@@H](C)[C@@H](O)[C@H]1C(=O)N[C@@H](CC)C(=O)N(C)[C@H](SCCN(C)C)C(=O)N(C)[C@@H](CC(C)C)C(=O)N[C@@H](C(C)C)C(=O)N(C)[C@@H](CC(C)C)C(=O)N[C@@H](C)C(=O)N[C@H](C)C(=O)N(C)[C@@H](CC(C)C)C(=O)N(C)[C@@H](CC(C)C)C(=O)N(C)[C@@H](C(C)C)C(=O)N1C` [drawing 1933], for which the Epimerization % was roughly 26% under setting [1], roughly 32% under setting [2] and roughly 35% under setting [3].

For `C/C=C/C[C@@H](C)[C@@H](O)[C@H]1C(=O)N[C@@H](CC)C(=O)N(C)[C@H](SCCN(C)C)C(=O)N(C)[C@@H](CC(C)C)C(=O)N[C@@H](C(C)C)C(=O)N(C)[C@@H](CC(C)C)C(=O)N[C@@H](C)C(=O)N[C@H](C)C(=O)N(C)[C@@H](CC(C)C)C(=O)N(C)[C@@H](CC(C)C)C(=O)N(C)[C@@H](C(C)C)C(=O)N1C` [drawing 1930], the Epimerization % (Table 7, MeOH at 65° C., 2 hours) is roughly 12%; the Epimerization % (Table 7, MeOH at 65° C., 4 hours) is roughly 19%; the Epimerization % (Table 7, MeOH at 65° C., 6 hours) is recorded as roughly 23%.

As for `C/C=C/C[C@@H](C)[C@@H](O)[C@H]1C(=O)N[C@@H](CC)C(=O)N(C)[C@H](SCCCN(CC)CC)C(=O)N(C)[C@@H](C(C)CC)C(=O)N[C@@H](C(C)C)C(=O)N(C)[C@@H](CC(C)C)C(=O)N[C@@H](C)C(=O)N[C@H](C)C(=O)N(C)[C@@H](CC(C)C)C(=O)N(C)[C@@H](CC(C)C)C(=O)N(C)[C@@H](C(C)C)C(=O)N1C` (some centres unmarked) (cyclo(A[dA][NMeL][NMeL][NMeV][MeBmt][Abu][X2][NMeIle(3ξ)]V[NMeL])), the Epimerization % runs as follows: under setting [1], 0%; under setting [2], 0%; under setting [3], 0%.

On to `C/C=C/C[C@@H](C)[C@@H](O)[C@H]1C(=O)N[C@@H](CC)C(=O)N(C)[C@H](CSCCN(C)C)C(=O)N(C)[C@@H](CC(C)(C)O)C(=O)N[C@@H](C(C)C)C(=O)N(C)[C@@H](CC(C)C)C(=O)N[C@@H](C)C(=O)N[C@H](C)C(=O)N(C)[C@@H](CC(C)C)C(=O)N(C)[C@@H](CC(C)C)C(=O)N(C)[C@@H](C(C)C)C(=O)N1C`, for which the “Epimerization % after 168 hours” value amounted to 0%.

Take `C/C=C/C[C@@H](C)[C@@H](O)[C@H]1C(=O)N[C@@H](CC)C(=O)N(C)[C@H](CSCCCN2CCCCC2)C(=O)N(C)[C@@H](CC(C)(C)O)C(=O)N[C@@H](C(C)C)C(=O)N(C)[C@@H](CC(C)C)C(=O)N[C@@H](C)C(=O)N[C@H](C)C(=O)N(C)[C@@H](CC(C)C)C(=O)N(C)[C@@H](CC(C)C)C(=O)N(C)[C@@H](C(C)C)C(=O)N1C`: the “Epimerization % after 168 hours” value came to 0%.

`C/C=C/C[C@@H](C)[C@@H](O)[C@H]1C(=O)N[C@@H](CC)C(=O)N(C)[C@H](COCCN(CC)CC)C(=O)N(C)[C@@H](CC(C)C)C(=O)N[C@@H](C(C)C)C(=O)N(C)[C@@H](CC(C)C)C(=O)N[C@@H](C)C(=O)N[C@H](C)C(=O)N(C)[C@@H](CC(C)C)C(=O)N(C)[C@@H](CC(C)C)C(=O)N(C)[C@@H](C(C)C)C(=O)N1C`: the “Epimerization % after 168 hours” value stood at 0%.

Regarding `C/C=C/C[C@@H](C)[C@@H](O)[C@H]1C(=O)N[C@@H](CC)C(=O)N(C)[C@H](COCCN(C)C)C(=O)N(C)[C@@H](CC(C)C)C(=O)N[C@@H](C(C)C)C(=O)N(C)[C@@H](CC(C)C)C(=O)N[C@@H](C)C(=O)N[C@H](C)C(=O)N(C)[C@@H](CC(C)C)C(=O)N(C)[C@@H](CC(C)C)C(=O)N(C)[C@@H](C(C)C)C(=O)N1C`, the “Epimerization % after 168 hours” value stood at 0%.

In the case of `C/C=C/C[C@@H](C)[C@@H](O)[C@H]1C(=O)N[C@@H](CC)C(=O)N(C)[C@H](SCCCN2CCOCC2)C(=O)N(C)[C@@H](CC(C)(C)O)C(=O)N[C@@H](C(C)C)C(=O)N(C)[C@@H](CC(C)C)C(=O)N[C@@H](C)C(=O)N[C@H](C)C(=O)N(C)[C@@H](CC(C)C)C(=O)N(C)[C@@H](CC(C)C)C(=O)N(C)[C@@H](C(C)C)C(=O)N1C` [drawing 1936], the Epimerization % reads like this: under setting [1], 0%; under setting [2], 0%; under setting [3], 0%.

On to `C/C=C/C[C@@H](C)[C@@H](O)[C@H]1C(=O)N[C@@H](CC)C(=O)N(C)[C@H](CSCCCN(CC)CC)C(=O)N(C)[C@@H](CC(C)(C)O)C(=O)N[C@@H](C(C)C)C(=O)N(C)[C@@H](CC(C)C)C(=O)N[C@@H](C)C(=O)N[C@H](C)C(=O)N(C)[C@@H](CC(C)C)C(=O)N(C)[C@@H](CC(C)C)C(=O)N(C)[C@@H](C(C)C)C(=O)N1C`, for which the “Epimerization % after 168 hours” value amounted to 0%.

As to `C/C=C/C[C@@H](C)[C@@H](O)[C@H]1C(=O)N[C@@H](CC)C(=O)N(C)[C@H](SCCCN2CCOCC2)C(=O)N(C)[C@@H](CC(C)(C)OC)C(=O)N[C@@H](C(C)C)C(=O)N(C)[C@@H](CC(C)C)C(=O)N[C@@H](C)C(=O)N[C@H](C)C(=O)N(C)[C@@H](CC(C)C)C(=O)N(C)[C@@H](CC(C)C)C(=O)N(C)[C@@H](C(C)C)C(=O)N1C` [drawing 1937], the Epimerization % was 0% under setting [1], 0% under setting [2] and 0% under setting [3].

As to `C/C=C/C[C@@H](C)[C@@H](O)[C@H]1C(=O)N[C@@H](CC)C(=O)N(C)[C@H](SCCN(CC)CC)C(=O)N(C)[C@@H](C(C)CC)C(=O)N[C@@H](C(C)C)C(=O)N(C)[C@@H](CC(C)C)C(=O)N[C@@H](C)C(=O)N[C@H](C)C(=O)N(C)[C@@H](CC(C)C)C(=O)N(C)[C@@H](CC(C)C)C(=O)N(C)[C@@H](C(C)C)C(=O)N1C` (some centres unmarked) (cyclo(A[dA][NMeL][NMeL][NMeV][MeBmt][Abu][X6][NMeIle(3ξ)]V[NMeL])), the Epimerization % by setting is: under setting [1], roughly 4%; under setting [2], roughly 10%; under setting [3], roughly 16%.
